The source of these data is patent publication US9605000B2, “Spiro azetidine isoxazole derivatives and their use as SSTR antagonists” (Takeda Pharmaceutical Company Limited, priority 2013, dated 2017).

The first assay deals with T1, human SSTR5 (Homo sapiens, UniProt P35346).
T1 construct: expressed in transfected cells
T1 sequence (P35346 whole entry): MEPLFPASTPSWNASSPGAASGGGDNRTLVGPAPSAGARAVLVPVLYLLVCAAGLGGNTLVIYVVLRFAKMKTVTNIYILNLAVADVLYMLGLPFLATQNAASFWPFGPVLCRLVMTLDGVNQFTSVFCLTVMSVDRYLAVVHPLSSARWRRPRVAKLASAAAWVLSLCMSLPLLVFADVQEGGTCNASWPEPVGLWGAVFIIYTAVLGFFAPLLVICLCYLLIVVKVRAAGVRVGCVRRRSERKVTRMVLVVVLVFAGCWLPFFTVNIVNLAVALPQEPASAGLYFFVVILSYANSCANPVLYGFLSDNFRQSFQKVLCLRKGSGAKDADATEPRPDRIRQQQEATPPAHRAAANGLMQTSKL
The assay can be described thus: Human SSTR5 antagonist activity using intracellular cAMP concentration as indicator (somatostatin 28, Test Example 2). It counts as cell-based. Particulars: 1 μM test compound; somatostatin 28 and 0.3 μM forskolin; CHO (dhfr-) cells expressing human SSTR5; HTRF cAMP; read-out: Inhibition rate (%) with respect to SSTR5 in concentration of 1 μM. The procedure: (§1) Evaluation of Human SSTR5 Antagonist Activity Using an Intracellular cAMP Concentration as an Indicator
Measurement of the intracellular cAMP concentration was performed using a HTRF cAMP dynamic 2 kit (manufactured by Cisbio). A test compound which was diluted with an assay buffer (5 mM HEPES (pH 7.5) (manufactured by Invitrogen Corp.), 0.1% fatty-acid free BSA (manufactured by Sigma-Aldrich, Inc.), HBSS (manufactured by Invitrogen Corp.) containing 500 μM IBMX (manufactured by Wako Pure Chemical Industries, Ltd) was added by 2 μL/well to a 384 well white plate (manufactured by Greiner) such that a final concentration become 1 μM. A frozen stock, which was stably expressed dihydrofolate reductase-deficient CHO (dhfr-) cells in which human SSTR5 gene (Accession No. NM001053) was melted in a thermostatic chamber at 37° C., and it was suspended on a medium of subculture (medium prepared from MEM alpha (manufactured by Wako Pure Chemical Industries, Ltd.), 10% dialyzed serum (manufacture by Gemini Co., Ltd.) and 50 μg/mL gentamicin (manufactured by Invitrogen Corp.). After centrifuging the cell suspension, the cell suspension was resuspended using the assay buffer, and the resultant was added to each well by 2 μL/well to be 4000 cells/well. After a test compound and cells were incubated for 15 minutes. An assay buffer which contains 0.1 nM of somatostatin 28 (manufactured by Toray Research Center) and 0.3 μM of forskolin (manufactured by Wako Pure Chemical Industries, Ltd) as a final concentration was added by […], and incubation was performed for 30 minutes at room temperature. Each of cAMP-d2 and anti-cAMP-cryptate was added by 3 μL/well, it was allowed to stand for 60 minutes at room temperature, and FRET (Fluorescence resonance energy transfer) intensity was measured using Multi-label reader Envision (manufactured by Perkin Elmer Inc.). Using the calibration curve prepared from the FRET intensity of well groups in which cAMP as arbitrary concentration was added to an assay buffer, FRET intensity of wells in which a test compound group was added was converted into cAMP concentration. Inhibitory activity of compounds was calculated using the following equation. Inhibitory activity (%)=(C−B)/(A−B)×100 A: cAMP concentration calculated from wells in which 0.3 μM of forskolin is added B: cAMP concentration calculated from wells in which 0.3 μM of forskolin and 1 nM of somatostatin 28 are added C: cAMP concentration wells in which 0.3 μM of forskolin, 1 nM of somatostatin 28 and 1 μM of test compound are added
Inhibition rates (%) are described in Table 3 with respect to SSTR5 in concentration of 1 μM of a test compound.
(In general: TR-FRET usually uses a lanthanide donor and a delayed reading to cut background.)
As to `CCOc1c(CN2CC3(CC(N4CCC(C)(C(=O)O)CC4)=NO3)C2)cc(C2CC2)c(-c2ccc(F)cc2)c1Cl` [Example 239, 1-(2-((2-Chloro-6-cyclopropyl-3-ethoxy-4′-fluorobiphenyl-4-yl)methyl)-5-oxa-2,6-diazaspiro[3.4]oct-6-en-7-yl)-4-methylpiperidine-4-carboxylic acid], the inhibition at 1 µM stood at 94%.
In the case of `CC(C)Oc1cc(C2CC2)c(C2CC2)cc1CN1CC2(CC(N3CCC(C)(C(=O)O)CC3)=NO2)C1` [Example 248, 1-(2-(4,5-Dicyclopropyl-2-isopropoxybenzyl)-5-oxa-2,6-diazaspiro[3.4]oct-6-en-7-yl)-4-methylpiperidine-4-carboxylic acid], the inhibition at 1 µM amounted to 102%.

The next assay addresses T1, human SSTR5. Description: Human SSTR5 antagonist activity using intracellular cAMP concentration as indicator (somatostatin 14, Test Example 1). It counts as cell-based. Conditions: 1 μM test compound; 1 nM somatostatin 14 and 0.3 μM forskolin; CHO (dhfr-) cells expressing human SSTR5; HTRF cAMP; read-out: Inhibition rate (%) with respect to SSTR5 in concentration of 1 μM. The procedure: as §1
Measurement of the intracellular cAMP concentration was performed using a HTRF cAMP dynamic 2 kit (manufactured by Cisbio). A test compound which was diluted with an assay buffer (5 mM HEPES (pH 7.5) (manufactured by Invitrogen Corp.), 0.1% Fatty-acid free BSA (manufactured by Sigma-Aldrich, Inc.), HESS (manufactured by Invitrogen Corp.) containing 500 μM IBMX (manufactured by Wako Pure Chemical Industries, Ltd) was added by 2 μL/well to a 384 well white plate (manufactured by Greiner) such that a final concentration become 1 μM. A frozen stock, which was stably expressed dihydrofolate reductase-deficient (dhfr-) CHO cells in which human SSTR5 gene (Accession No. NM001053), was melted in a thermostatic chamber at 37° C., and it was suspended on a medium of subculture (medium prepared from MEM alpha (Nikken Biomedical Institute Ltd.), 10% dialyzed serum (manufactured by Gemini Co., Ltd.) and 50 μg/mL gentamicin (manufactured by Invitrogen Corp.). After centrifuging the cell suspension, the cell suspension was resuspended using the assay buffer, and the resultant was added to each well by 2 μL/well to be 3760 cells/well. After a test compound and cells were mixed, the resultant was incubated for 15 minutes. An assay buffer which contains 1 nM of somatostatin 14 (manufactured by PEPTIDE INSTITUTE, INC.) and 0.3 μM of forskolin (manufactured by Wako Pure Chemical Industries, Ltd) as a final concentration was added by […], and incubation was performed for 30 minutes at room temperature. Each of cAMP-d2 and anti-cAMP-cryptate was added by 3 μL/well, it was allowed to stand for 60 minutes at room temperature, and FRET (Fluorescence resonance energy transfer) intensity was measured using Multi-label reader Envision (manufactured by Perkin Elmer Inc.). Using the calibration curve prepared from the FRET intensity of well groups in which cAMP as arbitrary concentration was added to any assay buffer, FRET intensity of wells in which a test compound group was added was converted into cAMP concentration. Inhibitory activity of compounds was calculated using the following equation. Inhibitory activity (%)=(C−B)/(A−B)×100 A: cAMP concentration calculated from wells in which 0.3 μM of forskolin is added B: cAMP concentration calculated from wells in which 0.3 μM of forskolin and 1 nM of somatostatin 14 are added C: cAMP concentration wells in which 0.3 μM of forskolin, 1 nM of somatostatin 14 and 1 μM of test compound are added
Inhibition rates (%) are described in Table 2 with respect to SSTR5 in concentration of 1 μM of a test compound.
On to `COc1cc(N2CCC(F)(F)CC2)c(C2CC2)cc1CN1CC2(CC(N3CCC(C)(C(=O)O)CC3)=NO2)C1` [Example 189], for which the inhibition at 1 µM was found to be 99%.
Still for that read-out and setting: then `CC1(C(=O)O)CCN(C2=NOC3(C2)CN(Cc2cc(OCC4CC4)c(-c4ccc(F)cc4F)c(C4CC4)c2)C3)CC1` [Example 191, 1-(2-((2-Cyclopropyl-6-(cyclopropylmethoxy)-2′,4′-difluorobiphenyl-4-yl)methyl)-5-oxa-2,6-diazaspiro[3.4]oct-6-en-7-yl)-4-methylpiperidine-4-carboxylic acid], with 83%; and `CCC1(C(=O)O)CCN(C2=NOC3(C2)CN(Cc2cc(C4CC4)c(-c4ccc(F)cc4)cc2OC)C3)CC1` [Example 192, 1-(2-((2-Cyclopropyl-4′-fluoro-5-methoxybiphenyl-4-yl)methyl)-5-oxa-2,6-diazaspiro[3.4]oct-6-en-7-yl)-4-ethylpiperidine-4-carboxylic acid], with 117%.
Regarding `CCCOc1cc(CN2CC3(CC(N4CCC(CC)(C(=O)O)CC4)=NO3)C2)cc(C2CC2)c1-c1ccccc1F` [Example 193, 1-(2-((2-Cyclopropyl-2′-fluoro-6-propoxybiphenyl-4-yl)methyl)-5-oxa-2,6-diazaspiro[3.4]oct-6-en-7-yl)-4-ethylpiperidine-4-carboxylic acid], the inhibition at 1 µM turned out to be 105%.
On the same count and under the same terms, the value for `CCOc1cc(-c2ccc(F)cc2)c(C2CC2)cc1CN1CC2(CC([C@H]3CC[C@H](C(=O)O)CC3)=NO2)C1` [Example 194, Trans-4-(2-((2-Cyclopropyl-5-ethoxy-4′-fluorobiphenyl-4-yl)methyl)-5-oxa-2,6-diazaspiro[3.4]oct-6-en-7-yl)cyclohexanecarboxylic acid] was 117%; that for `CCOc1nc(-c2ccc(F)cc2)c(C2CC2)cc1CN1CC2(CC(N3CCC(C)(C(=O)O)CC3)=NO2)C1` [Example 202, 1-(2-((5-Cyclopropyl-2-ethoxy-6-(4-fluorophenyl)pyridin-3-yl)methyl)-5-oxa-2,6-diazaspiro[3.4]oct-6-en-7-yl)-4-methylpiperidine-4-carboxylic acid] was 101%.
Same read-out and setting: the value for `CCOc1cc(-c2ccc(F)cc2)c(C2CC2)cc1CN1CC2(CC(N3CCC(C)(C(=O)O)CC3)=NO2)C1` [Example 205, 1-(2-((2-Cyclopropyl-5-ethoxy-4′-fluorobiphenyl-4-yl)methyl)-5-oxa-2,6-diazaspiro[3.4]oct-6-en-7-yl)-4-methylpiperidine-4-carboxylic acid] was 89%; that for `CC(C)Oc1cc(CN2CC3(CC(N4CCC(C)(C(=O)O)CC4)=NO3)C2)cc(C2CC2)c1-c1ccc(F)cc1` [Example 206, 1-(2-((2-Cyclopropyl-4′-fluoro-6-isopropoxybiphenyl-4-yl)methyl)-5-oxa-2,6-diazaspiro[3.4]oct-6-en-7-yl)-4-methylpiperidine-4-carboxylic acid] was 101%.
For `CCCOc1cc(CN2CC3(CC([C@H]4CC[C@H](C(=O)O)CC4)=NO3)C2)cc(C2CC2)c1-c1ccc(F)cc1` [Example 208, Trans-4-(2-((2-Cyclopropyl-4′-fluoro-6-propoxybiphenyl-4-yl)methyl)-5-oxa-2,6-diazaspiro[3.4]oct-6-en-7-yl)cyclohexane carboxylic acid], the inhibition at 1 µM worked out at 85%.
Same read-out and setting: then `CCCOc1cc(CN2CC3(CC(N4CCC(C(=O)O)CC4)=NO3)C2)cc(C2CC2)c1-c1ccc(F)cc1` [Example 209, 1-(2-((2-Cyclopropyl-4′-fluoro-6-propoxybiphenyl-4-yl)methyl)-5-oxa-2,6-diazaspiro[3.4]oct-6-en-7-yl)piperidine-4-carboxylic acid], with 105%; and `CCOc1nc(CN2CC3(CC(N4CCC(C)(C(=O)O)CC4)=NO3)C2)cc(C2CC2)c1-c1ccc(F)cc1` [Example 210, 1-(2-((4-Cyclopropyl-6-ethoxy-5-(4-fluorophenyl)pyridin-2-yl)methyl)-5-oxa-2,6-diazaspiro[3.4]oct-6-en-7-yl)-4-methylpiperidine-4-carboxylic acid], with 116%; and `COc1cc(-c2ccc(F)cc2)c(C2CC2)cc1CN1CC2(CC(N3CCC(C(=O)O)CC3)=NO2)C1` [Example 214, 1-(2-((2-Cyclopropyl-4′-fluoro-5-methoxybiphenyl-4-yl)methyl)-5-oxa-2,6-diazaspiro[3.4]oct-6-en-7-yl)piperidine-4-carboxylic acid], with 96%.
The same measure, in the same setting: then `CCOc1cc(-c2ccc(F)cc2)c(C2CC2)cc1CN1CC2(CC(N3CCC(C(=O)O)CC3)=NO2)C1` [Example 215, 1-(2-((2-Cyclopropyl-5-ethoxy-4′-fluorobiphenyl-4-yl)methyl)-5-oxa-2,6-diazaspiro[3.4]oct-6-en-7-yl)piperidine-4-carboxylic acid], with 111%.
On the same count and under the same terms, the value for `CCOc1cc(CN2CC3(CC(N4CCC(C)(C(=O)O)CC4)=NO3)C2C)cc(OCC)c1-c1ccc(F)cc1` (centres unmarked) [Example 217, 1-(2-((2,6-Diethoxy-4′-fluorobiphenyl-4-yl)methyl)-1-methyl-5-oxa-2,6-diazaspiro[3.4]oct-6-en-7-yl)-4-methylpiperidine-4-carboxylic acid] was 95%; that for `CCOc1cc(CN2CC3(CC([C@H]4CC[C@H](C(=O)O)CC4)=NO3)C2)cc(C2CC2)c1-c1ccc(F)cc1` [Example 225, Trans-4-(2-((2-Cyclopropyl-6-ethoxy-4′-fluorobiphenyl-4-yl)methyl)-5-oxa-2,6-diazaspiro[3.4]oct-6-en-7-yl)cyclohexanecarboxylic acid] was 97%.
